Patent US20230337658A1, “COMPOSITIONS AND METHODS FOR ENHANCING SPERM CELL QUALITY” (ABS Global, Inc., priority 2022, published 2023)
Counter-ions that a name gives are not always drawn.

What was measured:
[1] = test system: slaughterhouse oocytes fertilized with sexed semen; assay: In vitro fertilization (IVF) with sexed semen: embryo cleavage and blastocyst formation; format: cell-based, bovine
Text: IVF Testable Unit Generation Design: This study utilizes sires from two breeds, Holstein and Jersey. The study design includes one ejaculate collection from 10 unique sires to generate sexed semen units in a split batch design with clofilium and a paired control.
Final breed tally of the collections were 7 Holsteins and 3 Jersey sires. Ejaculates selected for use in this trial were processed following standard production procedures outlined in detail below. Insemination doses, freeze canes, and all associated documentation were blind labeled during the incoming quality check. This was to prevent technician bias on quality control assessments after freeze-thaw as well as during the IVF outcome quantitation assessments.
After processing, the sexed semen was packaged and frozen during a regularly scheduled production freeze following standard operating procedures (SOPs). Within one week of unit generation, the outgoing quality control measurements were performed by a trained research technician. Post-thaw motile concentration and the presence/absence of bacterial contamination were completed. Insemination doses had to pass standard production outgoing quality control parameters to be utilized for the IVF trial.
Each facility received the two treatment groups for each individual ejaculate. The two treatments from each split ejaculate were used concurrently to fertilize oocytes from the same pooled batch of slaughterhouse oocytes.
Trained IVF technicians performed the outlined fertilizations. Day 2 cleavage rate, Day 7 and 8 blastocyst rates will be recorded, as well as polyspermy post-fertilization.
Oocyte prep: Four well fertilization plates are prepared by filling all 4 wells with 400 μL of BO-IVF (MOFA Verona, Wis.) and equilibrated in a 37° C. 5% CO2 for at least 1 hour. […]
Semen prep: Three insemination straws per treatment group are thawed at 37° C. for 45 seconds. […] A 5 μL sample aliquot is added to 95 μLs 4% NaCl to immobilize the cells, and cell concentration is quantified using a hemocytometer. Cells with visible membrane damage are not counted towards cell density calculations. […]

sperm cells [2] = assay: Sexing cytometer metrics: eligible cells, skew; format: cell-based, bovine; conditions: 5 μM, n=10 sires
Experimental: (§1) Sample Preparation for Sperm Sexing: A stained sample was prepared at room temperature that contained 200 M/mL sperm cells in 0.06 mg/mL Hoechst 33342 diluted to final volume in Stain TALP with Magnetic Beads with (+clofilium) or without (control) such that clofilium would be at a final concentration of 5 μM in the final stained sample volume. The sample was then incubated in a 37° C. water bath for 45 minutes. After 45 minutes Red Stain TALP was added to the stained sample in a 2:1 v/v ratio. The sample+Red TALP was then thoroughly mixed using inversion, filtered using tube top 20 μm Partec filters (Partec#04-0042-2315), and aliquoted into round bottom 5 mL tubes.
Sexing Cytometer Metrics: The stained, filtered sample was then run on proprietary sexing cytometers. The sample throughput was adjusted to 23,000 cells/sec and the detection and kill lasers were focused. To confirm proper laser focus, kill count assessments were performed before collecting sex skewed sample. A successful kill count has a population that is ≥75% dead and ≥95% sliced with at least 200 cells being counted. […] After a successful kill count, a gate was placed to collect the X chromosome cells, which is the cell population with the brighter Hoechst 33342 fluorescence as measured with a 355 nm wavelength excitation laser. […]

sperm cells [3] = assay: Pre-freeze and post-freeze motile cell quantification (CASA); format: cell-based, bovine; conditions: 5 μM, n=10 sires, compared to SOP
Experimental: Sex Skewed Sample Collection and Processing: The sample was run to collect between 300 and 400 mL of sex skewed sample, the composition of which is approximately 17% TRIS A (Part 1) buffer, 80% sheath fluid, and 2% cell sample. The sample was collected in 50 mL conical tubes containing 5 mLs of TRIS A (Part 1), and each tube was filled to a max volume of 30 mL before being replaced. After the requisite total volume was collected, sexed sperm was centrifuged at room temperature at 2400×g for 10 minutes. The supernatant was aspirated and discarded to reach a 1 mL pellet volume. 144 μL of TRIS A (Part 1)/GTLS mixture containing 40 μM clofilium or no clofilium (control) was added to each pellet after resuspension. The tubes were then placed in beakers filled with 150 mL of room temperature water, to prevent cold shock, and were then transferred to a 4° C. cold room. […] The concentration of progressively motile cells was determined using the Hamilton Thorne IVOS II with […] […] After which 20 μLs of sample is added to 20 μLs of QC diluent, gently vortexed for 5 seconds, and read on the CASA fluorescent settings described above. The remainder of the straw volume is spread on a blood agar plate and left at 37° C. for 24 hours before bacterial colonies are counted. […]

sexed semen samples = assay: Cellular function of sexed semen samples (mitochondrial membrane potential, motility); format: cell-based; conditions: sexed semen samples treated
sperm cells [4] = assay: Staining sperm cells with Hoechst dye before sexing; format: cell-based; conditions: present during staining with Hoechst dye
Experimental: as §1
Sexing Cytometer Metrics: The stained, filtered sample was then run on proprietary sexing cytometers. The sample throughput was adjusted to 23,000 cells/sec and the detection and kill lasers were focused. To confirm proper laser focus, kill count assessments were performed before collecting sex skewed sample. A successful kill count has a population that is ≥75% dead and ≥95% sliced with at least 200 cells being counted. If an instrument could not achieve the above metrics, the instrument was not used to collect sex skewed semen. After a successful kill count, a gate was placed to collect the X chromosome cells, which is the cell population with the brighter Hoechst 33342 fluorescence as measured with a 355 nm wavelength excitation laser. Cytometer performance metrics were collected 15 minutes after instrument set up, and 15 minutes after the placement of the last sample collection tube, including the height of the Y-peak, the height of the X-peak, the height of the trough from the histogram of events per emitted fluorescent intensity, gated %, and dead %.

## CCCCCCC[N+](CC)(CC)CCCCc1ccc(Cl)cc1 [clofilium tosylate, N-[4-(4-chlorophenyl)butyl]-N,N-diethylheptan-1-aminium]
[1]; 5 μM throughout the sexing process, N=2 sires, normalized to the control process, FIG. 3A
  percentage of normalized cleaved embryos at day 2: improvement
[1]; 5 μM throughout the sexing process, N=2 sires, normalized to the control process, FIG. 3B
  percentage of day 7 blastocysts: improvement
[1]; included in the sexing process
  fertility of semen, as assessed by embryo cleavage and blastocyst formation post-IVF: improves fertility
Sperm cells [2]
  Skew (percentage of X-chromosome bearing sperm cells): remains unaffected
Sperm cells [2]; compared to SOP at start and end of the collection process, FIG. 4
  percentage of eligible cells (live, sexed X chromosome bearing cells): increased eligible percent
Sperm cells [3]; post instrument processing, FIG. 5
  number of straws obtained from a single sample catch tube (pre-freeze motile cell quantification): improvement
Sperm cells [3]; post-freeze, FIGS. 6A, 6B
  motile cells (in millions) per insemination dose: more motile cells
Sexed semen samples
  cellular function, as measured by mitochondrial membrane potential: increased cellular function
  cellular function, as measured by motility: increased cellular function
Sperm cells [4]
  eligibility (number of cells eligible for sexing): increase eligibility
  resolution (separation of X- and Y-chromosome cell peaks in a histogram): increase resolution
  sex skew: increase
  time required to achieve staining saturation: reduce the time
